Data as given in patent publication US10584115B2, “Substituted pyridine and pyrazine BMI-1 inhibitors” (PTC Therapeutics, Inc., priority 2013, dated 2020).
Like-named read-outs stand apart in the source and are kept apart here.

What was measured:
Bmi-1 protein = test: Sandwich ELISA Assay (Bmi-1 protein level in HT-1080 cells after compound treatment); type: cell-based
Outline: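 HT-1080 cells exposed to compounds for 40–48 h at 37 °C (0.5% DMSO final), then lysed. Bmi-1 in lysates measured by sandwich ELISA (mouse monoclonal capture, rabbit anti-Bmi-1 detection, HRP anti-rabbit, TMB), read at OD450 with OD570 reference against a recombinant Bmi-1 standard curve (0–8000 pg/mL).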

[1] = Table 1, Bmi-1 sandwich ELISA, read-out: ELISA EC50 value for Bmi-1 protein
[2] = read-out: ELISA EC50 value for Bmi-1 protein, Table 1, Bmi-1 sandwich ELISA

Row | SMILES | EC50 (Bmi-1 protein; [1]) [nM] | melting point [°C] | EC50 (Bmi-1 protein; [2]) [nM]
1 | Cc1nc2ccc(F)cn2c1-c1cc(C#N)cc(Nc2ccccc2)n1 [compound 646, 2-(6-fluoro-2-methylimidazo[1,2-a]pyridin-3-yl)-6-(phenylamino)pyridine-4-carbonitrile] | 100 to 3000 | 176 to 178 | 
2 | Cc1cn2c(-c3cc(C#N)cc(Nc4ccc(C(F)(F)F)cc4)n3)c(C)nc2c(C)n1 [compound 487, 2-{[4-(trifluoromethyl)phenyl]amino}-6-(2,6,8-trimethylimidazo[1,2-a]pyrazin-3-yl)pyridine-4-carbonitrile] | 10 to 100 | 237 to 238 | 
3 | Cc1ccc(Nc2cc(C#N)cc(-c3c(C)nc4ccc(F)cn34)n2)cc1 [compound 648, 2-(6-fluoro-2-methylimidazo[1,2-a]pyridin-3-yl)-6-[(4-methylphenyl)amino}pyridine-4-carbonitrile] | 1 to 10 | 185 to 188 | 
4 | CCn1nc(C(F)(F)F)c(-c2cncc(Nc3ccc(C(F)(F)F)cc3)n2)c1C [compound 329, 6-[1-ethyl-5-methyl-3-(trifluoromethyl)-1H-pyrazol-4-yl]-N-[4-(trifluoromethyl)phenyl]pyrazin-2-amine] | 10 to 100 | 150 to 151 | 
5 | Cc1nc2ccc(F)cn2c1-c1cncc(Nc2cccc(C(F)(F)F)c2)n1 [compound 594, 6-(6-fluoro-2-methylimidazo[1,2-a]pyridin-3-yl)-N-[3-(trifluoromethyl)phenyl]pyrazin-2-amine] | 100 to 3000 | 188 to 190 | 
6 | Cc1nc2ccc(F)cn2c1-c1cc(N)cc(Nc2ccc(OC(F)F)c(F)c2)n1 [compound 315, N^2-[4-(difluoromethoxy)-3-fluorophenyl]-6-(6-fluoro-2-methylimidazo[1,2-a]pyridin-3-yl)pyridine-2,4-diamine] | 1 to 10 | 182 to 183 | 
7 | Cc1nc2ccc(F)cn2c1-c1cc(C#N)cc(Nc2ccc(OC(F)F)cc2)n1 [compound 248, 2-{[4-(difluoromethoxy)phenyl]amino}-6-(6-fluoro-2-methylimidazo[1,2-a]pyridin-3-yl)pyridine-4-carbonitrile] | 1 to 10 | 221 to 223 | 
8 | Cc1nc2cc(F)c(F)cc2n1-c1cncc(Nc2ccc(C(F)F)cc2)n1 [compound 501, 6-(5,6-difluoro-2-methyl-1H-benzimidazol-1-yl)-N-[4-(difluoromethyl)phenyl]pyrazin-2-amine] | 10 to 100 | 209 to 211 | 
9 | FC(F)Oc1ccc(Nc2cncc(-n3c(C(F)F)nc4ccccc43)n2)cc1 [compound 482, N-[4-(difluoromethoxy)phenyl]-6-[2-(difluoromethyl)-1H-benzimidazol-1-yl]pyrazin-2-amine] | 10 to 100 | 213 to 216 | 
10 | Cc1noc(C)c1-c1cncc(Nc2ccc3c(c2)OCO3)n1 [compound 639, N-(1,3-benzodioxol-5-yl)-6-(3,5-dimethyl-1,2-oxazol-4-yl)pyrazin-2-amine] | 100 to 3000 | 185 to 186 | 
11 | FC(F)(F)c1ccc(Nc2cncc(-c3c(C4CC4)nc4ccc(C(F)(F)F)cn34)n2)cc1 [compound 250, 6-[2-cyclopropyl-6-(trifluoromethyl)imidazo[1,2-a]pyridin-3-yl]-N-[4-(trifluoromethyl)phenyl]pyrazin-2-amine] |  | 240 to 241 | 10 to 100
12 | FC1(F)Oc2ccc(Nc3cncc(-c4cccc5nc(C6CCC6)cn45)n3)cc2O1 [compound 117, 6-(2-cyclobutylimidazo[1,2-a]pyridin-5-yl)-N-(2,2-difluoro-1,3-benzodioxol-5-yl)pyrazin-2-amine] | 100 to 3000 | 302 to 305 | 
13 | CCOC(=O)n1nc(C)c(-c2cncc(Nc3ccc(OC(F)F)cc3)n2)c1C [compound 279, ethyl 4-(6-{[4-(difluoromethoxy)phenyl]amino}pyrazin-2-yl)-3,5-dimethyl-1H-pyrazole-1-carboxylate] | 100 to 3000 | 92 to 93 | 
14 | Cc1nc2ccc(F)cc2n1-c1cncc(Nc2ccc(C(F)(F)F)cc2)n1 [compound 228, 6-(6-fluoro-2-methyl-1H-benzimidazol-1-yl)-N-[4-(trifluoromethyl)phenyl]pyrazin-2-amine] |  | 243 to 245 | 1 to 10
15 | CCc1nc2ccc(F)cc2n1-c1cncc(Nc2ccc(C(F)(F)F)cc2)n1 [compound 259, 6-(2-ethyl-6-fluoro-1H-benzimidazol-1-yl)-N-[4-(trifluoromethyl)phenyl]pyrazin-2-amine] | 1 to 10 | 267 to 269 | 
16 | Cc1nc2ccc(F)cn2c1-c1cncc(Nc2ccc(F)cc2)n1 [compound 591, 6-(6-fluoro-2-methylimidazo[1,2-a]pyridin-3-yl)-N-(4-fluorophenyl)pyrazin-2-amine] | 100 to 3000 | 208 to 210 | 

Row | SMILES | EC50 (Bmi-1 protein; [1]) [nM] | melting point [°C] | EC50 (Bmi-1 protein; [2]) [nM]
17 | Fc1ccc2nc(C3CC3)c(-c3cncc(Nc4ccc(OC(F)F)cc4)n3)n2c1 [compound 337, 6-(2-cyclopropyl-6-fluoroimidazo[1,2-a]pyridin-3-yl)-N-[4-(difluoromethoxy)phenyl]pyrazin-2-amine] | < 1 | 183 to 185 | 
18 | Cc1noc(C)c1-c1cncc(Nc2ccc(C(F)(F)F)cc2)n1 [compound 127, 6-(3,5-dimethyl-1,2-oxazol-4-yl)-N-[4-(trifluoromethyl)phenyl]pyrazin-2-amine] |  | 208 to 210 | 10 to 100
19 | CCn1nc(C(F)(F)F)c(-c2cncc(Nc3ccc(OC(F)(F)F)cc3)n2)c1C [compound 331, 6-[1-ethyl-5-methyl-3-(trifluoromethyl)-1H-pyrazol-4-yl]-N-[4-(trifluoromethoxy)phenyl]pyrazin-2-amine] | 100 to 3000 | 128 to 129 | 
20 | Cc1nc2ccc(F)cc2n1-c1cncc(Nc2ccc(OC(F)(F)F)cc2)n1 [compound 230, 6-(6-fluoro-2-methyl-1H-benzimidazol-1-yl)-N-[4-(trifluoromethoxy)phenyl]pyrazin-2-amine] | 10 to 100 | 215 to 217 | 
21 | FC(F)(F)c1ccc(Nc2cncc(-c3cccc4nc(C5CC5)cn34)n2)cc1 [compound 89, 6-(2-cyclopropylimidazo[1,2-a]pyridin-5-yl)-N-[4-(trifluoromethyl)phenyl]pyrazin-2-amine] | 100 to 3000 | 266 to 268 | 
22 | COc1ccc(Nc2cncc(-c3c(C)noc3C)n2)cc1F [compound 637, 6-(3,5-dimethyl-1,2-oxazol-4-yl)-N-(3-fluoro-4-methoxyphenyl)pyrazin-2-amine] | 10 to 100 | 158 to 159 | 
23 | FC1(F)Oc2ccc(Nc3cncc(-c4c(C(F)(F)F)nc5ccccn45)n3)cc2O1 [compound 91, N-(2,2-difluoro-1,3-benzodioxol-5-yl)-6-[2-(trifluoromethyl)imidazo[1,2-a]pyridin-3-yl]pyrazin-2-amine] | 100 to 3000 | 232 to 234 | 
24 | FC(F)(F)c1nc2ccccn2c1-c1cncc(Nc2ccc(C3CC3)cc2)n1 [compound 165, N-(4-cyclopropylphenyl)-6-[2-(trifluoromethyl)imidazo[1,2-a]pyridin-3-yl]pyrazin-2-amine] | 1 to 10 | 317 to 320 | 
25 | Cc1nn(Cc2cccnc2)c(C)c1-c1cncc(Nc2ccc(C(F)(F)F)cc2)n1 [compound 402, 6-[3,5-dimethyl-1-(pyridin-3-ylmethyl)-1H-pyrazol-4-yl]-N-[4-(trifluoromethyl)phenyl]pyrazin-2-amine] | 10 to 100 | 47 to 48 | 
26 | Cc1cn2c(-c3cc(C#N)cc(Nc4ccc(C(F)(F)F)cc4)n3)c(C3CC3)nc2c(C)n1 [compound 491, 2-(2-cyclopropyl-6,8-dimethylimidazo[1,2-a]pyrazin-3-yl)-6-{[4-(trifluoromethyl)phenyl]amino}pyridine-4-carbonitrile] | 100 to 3000 | 150 to 152 | 
27 | N#Cc1cc(Nc2ccc(OC(F)(F)F)cc2)nc(-c2c(C3CC3)nc3ccc(F)cn23)c1 [compound 350, 2-(2-cyclopropyl-6-fluoroimidazo[1,2-a]pyridin-3-yl)-6-{[4-(trifluoromethoxy)phenyl]amino}pyridine-4-carbonitrile] | 10 to 100 | 194 to 195 | 
28 | Fc1ccc2c(c1)nc(C1CC1)n2-c1cncc(Nc2ccc(OC(F)F)cc2)n1 [compound 227, 6-(2-cyclopropyl-5-fluoro-1H-benzimidazol-1-yl)-N-[4-(difluoromethoxy)phenyl]pyrazin-2-amine] | 10 to 100 | 188 to 190 | 
29 | COC(=O)c1ccc(Nc2cncc(-n3c(C)nc4ccc(F)cc43)n2)cc1 [compound 556, methyl 4-{[6-(6-fluoro-2-methyl-1H-benzimidazol-1-yl)pyrazin-2-yl]amino}benzoate] | 10 to 100 | 198 to 200 | 
30 | CCc1nc2ccc(F)cc2n1-c1cncc(Nc2cccc(Cl)c2)n1 [compound 625, N-(3-chlorophenyl)-6-(2-ethyl-6-fluoro-1H-benzimidazol-1-yl)pyrazin-2-amine] | 100 to 3000 | 192 to 195 | 
31 | Cc1c(-c2cncc(Nc3ccc(OC(F)(F)F)cc3)n2)c(C(F)(F)F)nn1C [compound 281, 6-[1,5-dimethyl-3-(trifluoromethyl)-1H-pyrazol-4-yl]-N-[4-(trifluoromethoxy)phenyl]pyrazin-2-amine] | 100 to 3000 | 157 to 158 | 
32 | CC(C)c1nc2ccccc2n1-c1cncc(Nc2ccc(C(F)(F)F)cc2)n1 [compound 52, 6-[2-(propan-2-yl)-1H-benzimidazol-1-yl]-N-[4-(trifluoromethyl)phenyl]pyrazin-2-amine] | 10 to 100 |  | 
